In article PMC11063903, “Engineering a human P2X2 receptor with altered ligand selectivity in yeast” (The Journal of Biological Chemistry, 2024):
Changes are numbered by the printed parent chain.

Key:
Assay type in all cases: cell-based
P2X2 A304W [1] = biological target: T1, P2X2 A304W (Homo sapiens, UniProt Q9UBL9, A304W); test: Fast GCaMP-mScarletI assay in yeast, P2X2 A304W; conditions: for Bottom, best fit value / Hillslope, best fit value / Top, best fit value: four-parameter logistic fit of ΔF/ΔT; for Bottom, best fit value / Hillslope, best fit value / Top, best fit value / EC50: n = 3; for EC50: four-parameter logistic fit, unit inferred, unit M, read-out: EC50, best fit value
T1 construct: expressed in transfected cells; host or cells: S. cerevisiae BY4741 background
T1 sequence (Q9UBL9 1-471 A304W): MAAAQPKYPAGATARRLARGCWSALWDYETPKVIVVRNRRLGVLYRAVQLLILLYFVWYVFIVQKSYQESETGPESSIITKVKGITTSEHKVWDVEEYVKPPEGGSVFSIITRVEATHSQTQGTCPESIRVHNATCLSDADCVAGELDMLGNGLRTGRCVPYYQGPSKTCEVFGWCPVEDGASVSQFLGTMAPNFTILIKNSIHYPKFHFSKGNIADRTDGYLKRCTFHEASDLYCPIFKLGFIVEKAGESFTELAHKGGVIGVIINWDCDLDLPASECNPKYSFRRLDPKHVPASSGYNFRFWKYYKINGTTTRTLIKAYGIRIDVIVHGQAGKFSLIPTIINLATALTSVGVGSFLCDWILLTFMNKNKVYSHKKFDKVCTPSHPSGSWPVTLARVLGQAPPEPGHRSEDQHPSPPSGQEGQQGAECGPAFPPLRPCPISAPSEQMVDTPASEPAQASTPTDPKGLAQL
Method: (§1) Figure 4 Unnatural-ligand gating in LBD libraries.A, WT P2X2 was tested with 1 mM ATP, 500 μM AMP-PNP, and compared to ATP with the broken receptor (K81C K83C) control with 1 mM ATP in the fast GCaMP-mScarletI assay (n = 3). […] B, heat map summarizing AMP-PNP signaling (ΔF/ΔT, fast GCaMP-mScarletI assay) in the site-saturation libraries (n = 2–3). All values are normalized to WT P2X2 with saturating amounts of AMP-PNP (500 μM) and therefore represent low signal (ΔF/ΔT) compared to the ATP ligand. C, F301W, F303Y, and A304W were combinatorially combined and tested against the WT, K81C K83C broken P2X2, and the single mutant clones with both ATP (1 mM, black) and AMP-PNP (500 μM, pink). […] Values here represent signal onset and are not normalized to a positive control (n = 2–5). D–K, dose response of each P2X variant with both ATP (black) and AMP-PNP (pink) in the fast GCaMP-mScarletI assay (n = 3). Statistics were performed via one-way ANOVA with Dunnett’s multiple comparisons with to the “broken” K81C K83C negative control. ∗ represents a p value ≤0.05, ∗∗ is p ≤ 0.01, and ∗∗∗ is p ≤ 0.001.
Given that the yeast-based screen seemed to recapitulate important structural and functional features of human ion channel function, we hypothesized that it might be possible to engineer new P2X2 functionalities in yeast, including new ligand specificity. […] We screened our 133-member library in the presence of 500 μM AMP-PNP (Fig. S7). While the AMP-PNP signal was uniformly low, three substitutions (F301W, F303Y, and A304W) increased signaling 2.5 to 2.8 times relative to the negative control receptor (Figs. 4B, and S7, D, F, and G). To gain a more complete view of the properties of these mutants, dose–response curves were generated with ATP and AMP-PNP (Fig. 4, D–G, and Table S2).
(§2) GCaMP assays were performed as follows. P2X2 GCaMP strains were designed with a bi-cistronic reporter, in which the GCaMP protein was followed by a 2A peptide and a mScarletI reporter ([53]). The co-translated mScarletI was designed to act as a control for plasmid loss, GCaMP breakage via nonsense mutation, and contamination. […] P2X2-GCaMP strains were cultured and induced as previously described. Samples were induced for 24 h to allow for the accumulation of the mature GCaMP protein. Cells were washed three times in 0.1 M MES/Tris buffer and resuspended with MES/Tris with supplemental calcium. Cells were loaded onto a black, clear bottom microplate and imaged on a FlexStation3 plate reader. Samples were imaged in “flex” mode. Samples were imaged for 48 s at an interval of 1.6 s. Fluorescence was measured with an excitation at 485 nm, and emission 525 nm. At the 21 s mark, 100 μl ligand solution was transferred to the cells. For strains with mScarlet, fluorescence was read with excitation 570 nm/emission 610 nm. Slopes were calculated from the last 6 points of measurement and were normalized to the positive control samples. Any replicate in which the mScarlet value was measured to be over 2 standard deviations less than the mean for that set was discarded from further analysis.
(§3) For multiple comparisons in the site-saturation screening data, One-way ANOVA with Dunnett’s multiple comparisons test was performed where every sample was compared to the “broken” negative control. Significance was plotted where ∗ represents a p value ≤0.05, ∗∗ is p ≤0.01, and ∗∗∗ is p ≤0.001. Dose–response curves were fit with nonlinear regression software using a four-parameter logistic curve. All statistics were calculated and plotted in Graphpad Prism software.

P2X2 F301W+A304W = biological target: T2, P2X2 F301W+A304W (Homo sapiens, UniProt Q9UBL9, A304W/F301W); test: Fast GCaMP-mScarletI assay in yeast, P2X2 F301W+A304W; conditions: for Bottom, best fit value / Hillslope, best fit value / Top, best fit value: four-parameter logistic fit of ΔF/ΔT
T2 construct: expressed in transfected cells; host or cells: S. cerevisiae BY4741 background
T2 sequence (Q9UBL9 1-471 F301W/A304W): T1 sequence (Q9UBL9 1-471 A304W) with F301W
Method: as §1
The combined mutations were synergistic, with F303Y + A304W having a predicted additive effect of ca. Ten-fold, relative to the 73-fold seen.
as §2, §3

P2X2 A304W [2] = biological target: T1, P2X2 A304W; test: 15-min kinetic GCaMP-mScarletI assay in yeast, P2X2 A304W; conditions: 1 mM ATP or 5 mM AMP-PNP, 15-min bath incubation, n = 3
Method: To more fully characterize the selected and engineered P2X2 variants, kinetic assays were performed over a longer period (15 min) that provided a more complete view of receptor gating (Fig. 5, A–H).
Figure 5 Kinetic analysis of P2X variants.A–H, P2X2 variants in GCaMP-mScarletI yeast were injected with 1 mM ATP (black) or 5 mM AMP-PNP (pink) and fluorescence was monitored over a 15-min time course of bath incubation. Error bars represent standard deviation of the mean (n = 3).
The A304W mutation therefore appears to either favor the open conformation of the receptor and/or to have slow rates of pore closure.

SMILES | Bottom, best fit value (P2X2 A304W [1]) | Hillslope, best fit value (P2X2 A304W [1]) | Top, best fit value (P2X2 A304W [1]) | EC50 (P2X2 A304W [1]) [µM] | Bottom, best fit value (P2X2 F301W+A304W; n = 3) | Hillslope, best fit value (P2X2 F301W+A304W; n = 3) | Top, best fit value (P2X2 F301W+A304W; n = 3) | EC50 (P2X2 F301W+A304W; four-parameter logistic fit, n = 3, unit inferred, unit M, read-out: EC50, best fit value) [µM] | signal decay over the time course (P2X2 A304W [2]) | activity compared to the wild-type (P2X2 A304W [1]; AMP-PNP dose-response, high ligand concentrations) [fold] | improvement compared to the WT channel (rate of signal onset ΔF/ΔT) (P2X2 F301W+A304W; at 500 μM AMP-PNP) [fold]
Nc1ncnc2c1ncn2[C@@H]1O[C@H](COP(=O)(O)OP(=O)(O)OP(=O)(O)O)[C@@H](O)[C@H]1O [ATP] | 0.89 | 2.41 | 67.64 | 16.6 | -5.28 | 1.07 | 207.50 | 20.7 | no sign of decay | – | –
Nc1ncnc2c1ncn2[C@@H]1O[C@H](COP(=O)(O)OP(=O)(O)NP(=O)(O)O)[C@@H](O)[C@H]1O [AMP-PNP] | -0.1131 | 1.702 | 50.72 | 621 | -0.492 | 1.649 | 81.84 | – | a small amount of signal decay | 55.87 | 24
